Measured values taken from the METLIN SMRT retention time set (Domingo-Almenara et al. 2019).

Test: gradient 5% acetonitrile 3 min, to 50% in 2 min, to 85% in 15 min, held 3 min, 100 µL/min
Conditions: column: Zorbax Extend-C18 2.1 x 50 mm; eluents: water / acetonitrile, 0.1% formic acid
How it was run: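 The mobile phases were water and acetonitrile, each with 0.1% formic acid, pumped at 100 μL/min through a Zorbax Extend-C18 column (2.1 × 50 mm, 1.8 μm). Pure standards were injected as mixtures of ~100 molecules and detected by a quadrupole time-of-flight mass spectrometer in positive and negative ionization mode. Retention time came from computationally picked adduct peaks, each inspected by hand.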

Structure (SMILES)	RP-LC retention time [s]
CCOc1ccc(CNC(=O)C2CCCN(c3ccc(=O)n(-c4ccc(F)cc4)n3)C2)cc1 (stereo not drawn)	869
Cc1oc(-c2[nH]ncc2C(=O)N2CCCC2)cc1S(=O)(=O)Nc1ccccc1F	676
Oc1ccc(-c2ccc(F)cc2)cc1CN1CCCCCC1	694
O=C(CC1CCCC1)N1CCC(c2noc(-c3cnccn3)n2)C1 (stereo not drawn)	726
O=C(NCc1cc(F)cc(F)c1)c1ccc2c(c1)nc1n2CCN(C2CCCCC2)C1=O	830
COCCN1C(=O)c2ccccc2C(C(=O)Nc2ccc3[nH]ccc3c2)C12CCCC2 (stereo not drawn)	814
CCOC(=O)c1c(C)[nH]c(C)c1S(=O)(=O)NCCCN1CCc2ccccc2C1	651
COc1ccccc1CNC(=O)c1c(C)sc2ccn(CC(C)C)c(=O)c12	989
CN(CC1CCOC1)C(=O)Nc1ccc(Cl)cc1F (stereo not drawn)	728
COCCOCc1nc(C2CCN(S(=O)(=O)c3ccc(OC)cc3)C2)no1 (stereo not drawn)	791
O=C(c1ccccc1OCC1CCCN(C2CCC2)C1)N1CCCCC1 (stereo not drawn)	632
O=C(NCCc1csc(-c2ccccc2)n1)C1CCN(C(=O)c2ccc(F)c(F)c2)CC1	816
CC1=NS(=O)(=O)N(C)C=C1C(=O)OCc1noc(-c2ccccc2C)n1	987
COc1ccc(N2C(=O)CC(c3ccc(OC)c(OC)c3)CC2=O)cc1Cl	845
O=[N+]([O-])c1ccc(Sc2ncccn2)c([N+](=O)[O-])c1	900
CCCNC(=O)C1CCCN(c2ccc(SCC(=O)Nc3c(C)cccc3Cl)nn2)C1 (stereo not drawn)	655
Cc1cc(C)n2ncc(-c3ccc(C)c(S(=O)(=O)NCc4ccc(F)cc4Cl)c3)c2n1	1080
COc1ccccc1-c1nc2cnccn2c1NCCC(=O)NC1CCCCCC1	715
CC1CCCCN1CCCNC(=O)c1cc(S(=O)(=O)N2CCCC2)ccc1Cl (stereo not drawn)	643
Cn1cc(-c2cc3n(n2)CCC(=O)N3CC(=O)NCCCN2CCOCC2)c2ccccc21	603
Cc1cc(C)cc(C(=O)N2CCCC(C(=O)NCCN(C)C)C2)c1 (stereo not drawn)	599
O=C(Nc1ccc(F)c(F)c1)C1CCN(c2nccnc2Sc2ccccc2)CC1	1110

Structure (SMILES)	RP-LC retention time [s]
CC(C)Cc1cc(-c2nnc3sc(COc4ccccc4Cl)nn23)n[nH]1	941
COc1cc(C(=O)NCCNc2cc(-n3cccn3)ncn2)cc(OC)c1OC	631
COc1ccc(-c2noc(C3CCCN3C(=O)Nc3ccc4c(c3)OCCO4)n2)cc1 (stereo not drawn)	752
Cn1cc(-c2ccncc2)cc1C(=O)NCc1ccc(F)cc1F	648
Cc1ccc(C)c(NC(=O)C2CCCN(S(=O)(=O)c3cn(C(C)C)cn3)C2)c1 (stereo not drawn)	781
CCN1C(=O)C2CC3(CCN(C(=O)Nc4ccc5c(c4)OCCO5)CC3)CN2C1=O (stereo not drawn)	706
CCCNC(=O)C1CCN(c2ccc(SCC(=O)Nc3ccc(C(C)C)cc3)nn2)CC1	657
CC(=O)N1CCc2cc(N3CC(C(=O)NCc4cccc(F)c4)CC3=O)ccc21 (stereo not drawn)	741
CCOc1ccc(NC(=O)Cn2ccc3ccc(-c4nnc(C)o4)cc32)cc1	804
CCCC(=O)Nc1nc2ccc(CCC(=O)Nc3ccc(CC)cc3)cc2s1	952
COc1ccc(C(=O)NCc2ccc3c(c2)ncn3C(C)C)cc1F	632
CCn1cc(CCNC(=O)NCC(C)C)c2cccnc21	636
CCOC(=O)C1CCN(c2cc(-n3nc(C)cc3C)ncn2)CC1	1000
COCCNC(=O)c1cn2ccc(C)cc2n1	616
CS(=O)(=O)N(C1CCOCC1)C1CN(C(=O)NCCc2ccccc2)C1	684
CSc1ccc(-c2nc3cnccn3c2Nc2ccccc2C)cc1	974
Cc1cncc(CN2CCC(=C3c4ccc(Cl)cc4CCc4cccnc43)CC2)c1	659
Cc1cccc(NC(=O)C2CCCN(c3ccc(=O)n(-c4cccc(Cl)c4)n3)C2)c1C (stereo not drawn)	960
CCn1cc(CC(=O)NC2CCN(Cc3ccccc3)CC2)c2cccnc21	564
CCc1nn2c(CNC(=O)c3ccc(F)c(Cl)c3)c(-c3ccccc3)nc2s1	1020
O=S(=O)(c1ccccc1)c1nnn2c1nc(NCc1ccc(F)cc1)c1sccc12	837
CCc1cc(C2CCCN2C(=O)Nc2ccccc2Cl)on1 (stereo not drawn)	910

Structure (SMILES)	RP-LC retention time [s]
O=C(c1ccc(OCC2CCCN2C(=O)c2cccs2)cc1)N1CCCC1 (stereo not drawn)	815
COCCCNC(=O)C1CCN(c2cncnc2N2CCCCC2)CC1	606
CCCS(=O)(=O)c1ccc(NCc2ccc(OC)c(OC)c2)nn1	706
O=C(NC1CCCC1)C1c2cccn2CC(=O)N1c1cccc(Cl)c1 (stereo not drawn)	870
CC(C)N1CCN(C(=O)c2csc(N3CCN(c4ccccc4)CC3)n2)CC1	578
CC(C)CCC(=O)N1CCC2(CC1)CC(C)(O)CCO2 (stereo not drawn)	698
Cc1cccc2nnc(N3CCC(C(=O)Nc4ccc(Cl)cc4)CC3)n12	656
Cc1nc(N2CCOCC2)c2c(C(=O)N3CCN(c4cc(Cl)ccc4C)CC3)c(C)oc2n1	983
Cc1cc2c(=O)n(CC(=O)Nc3cccc(Cl)c3C)ccc2s1	819
Cn1c(=O)sc2cc(S(=O)(=O)N3CCC(C(=O)N4CCCCC4)CC3)ccc21	764
CCOc1ccc(NC(=O)Cc2c(C)nn(-c3nc(-c4ccc(F)cc4)cs3)c2C)cc1	1200
CCc1cc(N2CCN(C(=O)c3cc(OC)cc(OC)c3)CC2)nc2nncn12	601
Cc1ccc(C(=O)NCCCN2CCCC2)cc1NC(=O)C1=CSCCO1	596
CCN(CC)CCNC(=O)C1CCN(c2ccc(-c3cccs3)nn2)CC1	556
CC(CNC(=O)C1CCN(S(=O)(=O)c2cn(C(C)C)cn2)CC1)c1ccccc1 (stereo not drawn)	764
CCN(CC)C(=O)c1ccc2c(c1)CCCN2S(C)(=O)=O	748
O=c1c2cc(-c3ccc(F)cc3)nn2ccn1Cc1noc(CN2CCCCCC2)n1	683
CCOC(=O)c1nc(NCC2CCN(Cc3cccc(F)c3)CC2)c2ccccc2n1	605
CC1CS(=O)(=O)N(c2ccc(C(=O)N3CCN(c4ccccn4)CC3)cc2)C1=O (stereo not drawn)	554
CC(C)NC(=O)C1Cc2cc(C(F)(F)F)ccc2N2CCN(c3ccccc3)CC12 (stereo not drawn)	1100
COc1ccc(-n2ccc(=O)c(-c3nc(-c4ccc(Br)cc4)no3)n2)cc1	984
COc1ccc(-c2noc(-c3ccc(N4CCN(c5cccc(OC)c5)CC4)nc3)n2)cc1	1340

Structure (SMILES)	RP-LC retention time [s]
CC(C)CCNC(=O)C1(C)Cn2nc(C(=O)NCCc3ccc(Cl)cc3)cc2C(=O)N1C (stereo not drawn)	845
CN(C1CCc2nn(C)c(=O)n2CC1)S(=O)(=O)c1cccc2cccnc12 (stereo not drawn)	671
COc1ccc(C2=C(C)C(Nc3ccccc3OC)=NS2(=O)=O)cc1	925
Cc1cccc(-n2nc(C)c3sc(N(C)CC(=O)N4CCN(c5ccccn5)CC4)nc32)c1	700
Cc1ccc(NS(=O)(=O)c2cc(-c3[nH]ncc3C(=O)N3CCOCC3)oc2C)c(C)c1	721
O=C(NC1CCCCC1)C1CCCN(S(=O)(=O)c2cc(-c3noc(C4CCCC4)n3)cs2)C1 (stereo not drawn)	1220
O=C(Nc1ccc(Nc2ccncc2)cc1)c1ccc(Nc2ccnc3ccc([N+](=O)[O-])cc23)cc1[N+](=O)[O-]	651
Cn1c(=O)oc2cc(-c3noc(CNS(=O)(=O)c4ccccc4)n3)ccc21	805
Cc1noc(C)c1-c1ccc(S(=O)(=O)N2CCCCC2)cc1	961
Cc1nc(-c2cccnc2)nc2c1CCC(=O)N2Cc1cccs1	740
Cc1ccccc1Nc1c(-c2ccccc2O)nc2c(C)cccn12	701
Cc1c(CC(=O)N2CCC(C(N)=O)CC2)c(=O)oc2c(C)c3occ(C(C)(C)C)c3cc12	821
O=C(Nc1ccc2c(c1)OCO2)C1CCCN(c2ncc(-c3ccccc3)cn2)C1 (stereo not drawn)	1040
O=C(Cc1ccsc1)Nc1cnc(-c2ccccc2)nc1	890
O=C(c1c(F)cccc1Cl)N1CCN(c2ccc3nnc(-c4ccco4)n3n2)CC1	680
Cc1c2cnn(-c3ccccc3)c(=O)c2c(C)n1CCCC(=O)N1CCN(c2ccccn2)CC1	611
Cc1cccc(-c2nc3cnccn3c2NCCC(=O)N2CCCC2)c1	650
Cc1ccc(Cl)cc1NC(=O)N(C)CC1CCOC1 (stereo not drawn)	757
Cc1sc(-c2nc(C(C)C)cs2)cc1S(=O)(=O)N1CCN(c2ccccn2)CC1	908
Cc1ccn2cc(-c3ccc(NS(=O)(=O)c4ccc(Br)cc4)cc3)nc2n1	689
COCCOc1cc(=O)n2c(c1C(=O)NC1CCC1)CCOCC2	575
CC1=C(c2ccc(C)cc2)S(=O)(=O)N=C1N1CCCN(C(=O)C(C)(C)C)CC1	858
